For 20 molecules, T/C results are on record in PubChem BioAssay AID330 (DTP/NCI, 2004).

The structures appear in SMILES notation. Where “and” joins values, the source holds several entries; their conditions need not be identical. Equal values may be shown once. Toxic doses and inconclusive results are not listed.

The assay concerns P388 leukemia ip, CD2F1 mice, survival T/C. Kind of assay: NCI In Vivo Anticancer Drug Screen. Data for tumor model P388 Leukemia (intraperitoneal) in CD2F1 (CDF1) mice. The settings on record: endpoint: median survival time, higher = longer survival. In a few lines:
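Mice carrying the transplanted tumor received test compound or vehicle. Survival was recorded in each group, and the value is the treated-group measurement divided by that of the vehicle-treated control group.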

[1] abbreviates: dose: 6.25 mg/kg/injection, schedule: Q01DX009 (ip), vehicle: saline with Tween-80.
Where [2] appears, read: dose: 12.5 mg/kg/injection, schedule: Q01DX009 (ip), vehicle: saline with Tween-80.
[3] abbreviates: dose: 25.0 mg/kg/injection, schedule: Q01DX009 (ip), vehicle: saline with Tween-80.
Where [4] appears, read: dose: 6.25 mg/kg/injection, schedule: Q01DX009 (ip), vehicle: saline.
[5] abbreviates: dose: 12.5 mg/kg/injection, schedule: Q01DX009 (ip), vehicle: saline.
[6] abbreviates: dose: 50.0 mg/kg/injection, schedule: Q01DX009 (ip), vehicle: saline.
The mark [7] stands for this setting: dose: 100.0 mg/kg/injection, schedule: Q01DX009 (ip), vehicle: saline.
Setting [8] is: dose: 100.0 mg/kg/injection, schedule: Q04DX003 (ip), vehicle: saline.
Where [9] appears, read: dose: 200.0 mg/kg/injection, schedule: Q01DX009 (ip), vehicle: saline.
The mark [10] stands for this setting: dose: 200.0 mg/kg/injection, schedule: Q04DX003 (ip), vehicle: saline.
The mark [11] stands for this setting: dose: 400.0 mg/kg/injection, schedule: Q04DX003 (ip), vehicle: saline.
The mark [12] stands for this setting: dose: 50.0 mg/kg/injection, schedule: Q01DX005 (ip), vehicle: saline with Tween-80.
[13] abbreviates: dose: 100.0 mg/kg/injection, schedule: Q01DX005 (ip), vehicle: saline with Tween-80.
Setting [14] is: dose: 200.0 mg/kg/injection, schedule: Q01DX005 (ip), vehicle: saline with Tween-80.

For the molecule `O=C1C(Br)=CC(=NCl)C=C1Br`, the T/C by setting is: (dose: 3.13 mg/kg/injection, schedule: Q01DX009 (ip), vehicle: Klucel (hydroxypropylcellulose) (HPC)) 101 % of control and 88 % of control; (dose: 6.25 mg/kg/injection, schedule: Q01DX009 (ip), vehicle: Klucel (hydroxypropylcellulose) (HPC)) 101 % of control; under setting [1], 93 % of control; (dose: 12.5 mg/kg/injection, schedule: Q01DX009 (ip), vehicle: Klucel (hydroxypropylcellulose) (HPC)) 105 % of control and 94 % of control; under setting [2], 88 % of control; under setting [3], 90 % of control.

Regarding `COC1OC(CNC(=O)N(CCCl)N=O)C(O)C(O)C1O` (stereo not drawn), the T/C is, setting by setting: (dose: 1.56 mg/kg/injection, schedule: Q01DX009 (ip), vehicle: saline) 182 % of control; (dose: 3.12 mg/kg/injection, schedule: Q01DX009 (ip), vehicle: saline) 204 % of control; (dose: 3.12 mg/kg/injection, schedule: Q04DX002 (ip), vehicle: saline) 157 % of control; under setting [4], 248 % of control; (dose: 6.25 mg/kg/injection, schedule: Q04DX002 (ip), vehicle: saline) 212 % of control; (dose: 10.0 mg/kg/injection, schedule: Q04DX002 (ip), vehicle: saline) 278 % of control. The T/C is 263 % of control under setting [5]; 277 % of control (dose: 12.5 mg/kg/injection, schedule: Q04DX002 (ip), vehicle: saline); 288 % of control (dose: 20.0 mg/kg/injection, schedule: Q04DX002 (ip), vehicle: saline); 222 % of control (dose: 25.0 mg/kg/injection, schedule: Q04DX002 (ip), vehicle: saline); 86 % of control (dose: 40.0 mg/kg/injection, schedule: Q04DX002 (ip), vehicle: saline).

On to `O=c1cc(CCc2ccccc2)c2ccccc2[nH]1`, for which the T/C was 94 % of control (dose: 100.0 mg/kg/injection, schedule: Q04DX002 (ip), vehicle: saline with Tween-80); 94 % of control (dose: 200.0 mg/kg/injection, schedule: Q04DX002 (ip), vehicle: saline with Tween-80); 95 % of control (dose: 400.0 mg/kg/injection, schedule: Q04DX002 (ip), vehicle: saline with Tween-80).

Regarding `COc1cc2ccnc(Cc3ccc4c(c3)OCO4)c2cc1OC`, the T/C runs as follows: under setting [6], 115 % of control; under setting [7], 95 % of control; under setting [8], 100 % of control; under setting [9], 100 % of control; under setting [10], 100 % of control; under setting [11], 95 % of control.

With `CC(=O)OC1CCC2C3CCC4=C/C(=N/NC(=S)Nc5ccccc5)CCC4(C)C3CCC12C` (stereo not drawn), the T/C (dose: 100.0 mg/kg/injection, schedule: Q01DX001 (ip), vehicle: saline) was 101 % of control; the T/C (dose: 200.0 mg/kg/injection, schedule: Q01DX001 (ip), vehicle: saline) was 101 % of control; the T/C (dose: 400.0 mg/kg/injection, schedule: Q01DX001 (ip), vehicle: saline) was 100 % of control.

Turning to `O=C(N1CCC(CCCC2CCN(C(=O)C(F)(F)C(F)(F)C(F)(F)C(F)(F)C(F)(F)C(F)(F)C(F)(F)F)CC2)CC1)C(F)(F)C(F)(F)C(F)(F)C(F)(F)C(F)(F)C(F)(F)C(F)(F)F`, the T/C was 98 % of control under setting [6], 96 % of control under setting [7] and 95 % of control under setting [9].

`O=C(Nc1ncn[nH]1)C(=O)Nc1ncn[nH]1`: the T/C is 92 % of control under setting [1], 94 % of control under setting [2] and 95 % of control under setting [3].

For the molecule `COc1cccc(-n2cc[n+](C)c2/C=N/O)c1`, the T/C is 105 % of control under setting [3] and 108 % of control (dose: 50.0 mg/kg/injection, schedule: Q01DX009 (ip), vehicle: saline with Tween-80).

As to `C=C(CC)C(=O)OCC`, the T/C under setting [6] was 95 % of control, the T/C under setting [7] is 102 % of control and the T/C under setting [9] is 104 % of control.

Take `CCCCN1CCNC1=S`: the T/C by setting is: under setting [12], 100 % of control; under setting [13], 102 % of control; under setting [14], 102 % of control.

`O=S(=O)(Nc1cccc(NS(=O)(=O)c2ccccc2)n1)c1ccccc1`: the T/C was 91 % of control (dose: 50.0 mg/kg/injection, schedule: Q01DX001 (ip), vehicle: saline with Tween-80); 91 % of control (dose: 100.0 mg/kg/injection, schedule: Q01DX001 (ip), vehicle: saline with Tween-80); 91 % of control (dose: 200.0 mg/kg/injection, schedule: Q01DX001 (ip), vehicle: saline with Tween-80).

Regarding `O=[N+]([O-])c1ccc(O)c(CNCCCl)c1`, the T/C reads like this: (dose: 25.0 mg/kg/injection, schedule: Q04DX002 (ip), vehicle: DMSO) 95 % of control; (dose: 50.0 mg/kg/injection, schedule: Q04DX002 (ip), vehicle: DMSO) 98 % of control; (dose: 100.0 mg/kg/injection, schedule: Q04DX002 (ip), vehicle: DMSO) 89 % of control.

For the molecule `COc1ccc(C)cc1C(=C=C=C=C(c1cc(C)ccc1OC)c1ccccc1OCc1ccccc1)c1ccccc1OCc1ccccc1`, the T/C was 101 % of control (dose: 25.0 mg/kg/injection, schedule: Q01DX009 (ip), vehicle: Klucel (hydroxypropylcellulose) (HPC)); 100 % of control (dose: 50.0 mg/kg/injection, schedule: Q01DX009 (ip), vehicle: Klucel (hydroxypropylcellulose) (HPC)); 93 % of control (dose: 100.0 mg/kg/injection, schedule: Q01DX009 (ip), vehicle: Klucel (hydroxypropylcellulose) (HPC)).

In the case of `O=C1c2ccccc2C(=O)c2c(NCCN3CCNCC3)ccc(NCCN3CCNCC3)c21`, the T/C is, setting by setting: (dose: 4.0 mg/kg/injection, schedule: Q01DX009 (ip), vehicle: acid diluted with saline) 103 % of control; (dose: 8.0 mg/kg/injection, schedule: Q01DX009 (ip), vehicle: acid diluted with saline) 109 % of control; (dose: 12.5 mg/kg/injection, schedule: Q01DX009 (ip), vehicle: water) 107 % of control; (dose: 16.0 mg/kg/injection, schedule: Q01DX009 (ip), vehicle: acid diluted with saline) 120 % of control; (dose: 50.0 mg/kg/injection, schedule: Q01DX009 (ip), vehicle: water) 123 % of control.

In the case of `NC(=S)c1cn(C2OC(CO)C(O)C2O)c2ncnc(N)c12` (stereo not drawn), the T/C (dose: 0.31 mg/kg/injection, schedule: Q01DX009 (ip), vehicle: saline) was 100 % of control; the T/C (dose: 0.63 mg/kg/injection, schedule: Q01DX009 (ip), vehicle: saline) is 109 % of control; the T/C (dose: 1.4 mg/kg/injection, schedule: Q01DX009 (ip), vehicle: saline with Tween-80) is 119 % of control; the T/C (dose: 5.0 mg/kg/injection, schedule: Q01DX009 (ip), vehicle: saline with Tween-80) is 86 % of control.

As for `O=C(CCBr)c1ccc(Cl)cc1`, the T/C reads like this: (dose: 25.0 mg/kg/injection, schedule: Q04DX003 (ip), vehicle: saline with Tween-80) 107 % of control; (dose: 50.0 mg/kg/injection, schedule: Q04DX003 (ip), vehicle: saline with Tween-80) 103 % of control; (dose: 100.0 mg/kg/injection, schedule: Q04DX003 (ip), vehicle: saline with Tween-80) 100 % of control.

`NS(=O)(=O)c1cccc(NC(=S)Nc2ccccc2)c1`: the T/C is, setting by setting: under setting [4], 103 % of control (2×) and 108 % of control; under setting [5], 101 % of control and 106 % of control; (dose: 25.0 mg/kg/injection, schedule: Q01DX009 (ip), vehicle: saline) 99 % of control and 109 % of control and 94 % of control; under setting [7], 99 % of control and 92 % of control; under setting [9], 100 % of control and 110 % of control.

`[NH-]c1ccccc1[S-].[NH-]c1ccccc1[S-].[Zn]`: the T/C by setting is: under setting [8], 98 % of control; under setting [10], 95 % of control; under setting [11], 95 % of control.

In the case of `O=C1N=NC2NC=CN3C=CC=C1C23` (stereo not drawn), the T/C (dose: 60.0 mg/kg/injection, schedule: Q01DX005 (ip), vehicle: saline with Tween-80) is 102 % of control; the T/C (dose: 120.0 mg/kg/injection, schedule: Q01DX005 (ip), vehicle: saline with Tween-80) is 107 % of control; the T/C (dose: 240.0 mg/kg/injection, schedule: Q01DX005 (ip), vehicle: saline with Tween-80) is 110 % of control.

Regarding `Cc1csc2nc(-c3ccccc3)cn12`, the T/C is, setting by setting: under setting [12], 98 % of control; under setting [13], 96 % of control; under setting [14], 97 % of control.
